Reference: ChEMBL document CHEMBL4699602, “Stapled and Xenopus Glucagon-Like Peptide 1 (GLP-1)-Based Dual GLP-1/Gastrin Receptor Agonists with Improved Metabolic Benefits in Rodent Models of Obesity and Diabetes” (J Med Chem, 2020)
Where a SMILES comes first, the peptide text is derived from it.

Molecular target: Glucagon-like peptide 1 receptor (Homo sapiens, UniProt P43220)
Assay: Agonist activity at human GLP-1R expressed in HEK293 cells assessed as stimulation of cAMP accumulation incubated for 20 mins
Assay type: functional, cell-based

Sequence of Glucagon-like peptide 1 receptor (P43220 whole entry): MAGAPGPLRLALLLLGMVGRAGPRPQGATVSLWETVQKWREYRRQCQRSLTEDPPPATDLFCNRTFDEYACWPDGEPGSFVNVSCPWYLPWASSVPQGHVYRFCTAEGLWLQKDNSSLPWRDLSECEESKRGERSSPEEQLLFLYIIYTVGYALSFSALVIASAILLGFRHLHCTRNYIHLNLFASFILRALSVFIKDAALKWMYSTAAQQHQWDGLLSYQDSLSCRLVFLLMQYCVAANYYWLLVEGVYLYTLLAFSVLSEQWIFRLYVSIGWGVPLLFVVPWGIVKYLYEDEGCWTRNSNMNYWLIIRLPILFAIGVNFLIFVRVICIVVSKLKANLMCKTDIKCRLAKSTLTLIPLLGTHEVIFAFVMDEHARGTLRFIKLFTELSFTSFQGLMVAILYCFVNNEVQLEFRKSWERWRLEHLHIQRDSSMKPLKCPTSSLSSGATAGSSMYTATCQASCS

First: CC[C@H](C)[C@H](NC(=O)[C@H](CC(C)C)NC(=O)[C@H](Cc1c[nH]c2ccccc12)NC(=O)[C@H](CS)NC(=O)[C@@H](NC(=O)[C@H](Cc1ccccc1)NC(=O)[C@H](CCC(=O)O)NC(=O)[C@H](CCCCN)NC(=O)[C@H](C)NC(=O)[C@H](C)NC(=O)[C@H](CS)NC(=O)[C@H](CCC(=O)O)NC(=O)[C@H](CCC(=O)O)NC(=O)[C@H](CC(C)C)NC(=O)[C@H](Cc1ccc(O)cc1)NC(=O)[C@H](CCC(=O)O)NC(=O)[C@@H](NC(=O)[C@@H](NC(=O)[C@H](CC(=O)O)NC(=O)[C@H](CC(N)=O)NC(=O)[C@@H](NC(=O)[C@H](Cc1ccc(O)cc1)NC(=O)[C@@H](NC(=O)CNC(=O)[C@H](CCC(=O)O)NC(=O)C(C)(C)NC(=O)[C@@H](N)Cc1c[nH]cn1)[C@@H](C)O)[C@@H](C)O)C(C)C)[C@@H](C)O)[C@@H](C)CC)C(=O)N[C@@H](CCCCN)C(=O)NCC(=O)N[C@@H](CCCCN)C(N)=O (HELM PEPTIDE1{H.[Aib].E.G.T.Y.T.N.D.V.T.E.Y.L.E.E.C.A.A.K.E.F.I.C.W.L.I.K.G.K.[am]}$$$$V2.0)
Second: CC[C@H](C)[C@H](NC(=O)[C@H](Cc1ccccc1)NC(=O)[C@H](CCC(=O)O)NC(=O)[C@H](CS)NC(=O)[C@H](C)NC(=O)[C@H](C)NC(=O)[C@H](CCC(=O)O)NC(=O)[C@H](CCC(=O)O)NC(=O)[C@H](CCC(=O)O)NC(=O)[C@H](CC(C)C)NC(=O)[C@H](Cc1ccc(O)cc1)NC(=O)[C@H](CCC(=O)O)NC(=O)[C@@H](NC(=O)[C@@H](NC(=O)[C@H](CC(=O)O)NC(=O)[C@H](CC(N)=O)NC(=O)[C@@H](NC(=O)[C@H](Cc1ccc(O)cc1)NC(=O)[C@@H](NC(=O)CNC(=O)[C@H](CCC(=O)O)NC(=O)C(C)(C)NC(=O)[C@@H](N)Cc1c[nH]cn1)[C@@H](C)O)[C@@H](C)O)C(C)C)[C@@H](C)O)C(=O)N[C@@H](CCC(=O)O)C(=O)N[C@@H](Cc1c[nH]c2ccccc12)C(=O)N[C@@H](CC(C)C)C(=O)N[C@@H](CS)C(=O)N[C@@H](CCCCN)C(=O)NCC(=O)N[C@@H](CCCCN)C(N)=O (HELM PEPTIDE1{H.[Aib].E.G.T.Y.T.N.D.V.T.E.Y.L.E.E.E.A.A.C.E.F.I.E.W.L.C.K.G.K.[am]}$$$$V2.0)
The EC50 of the first is 4.8-fold lower: 0.16 nM for the first, 0.76 nM for the second.

`CC[C@H](C)[C@H](NC(=O)[C@H](Cc1ccccc1)NC(=O)[C@H](CCC(=O)O)NC(=O)[C@H](CS)NC(=O)[C@H](C)NC(=O)[C@H](C)NC(=O)[C@H](CCC(=O)O)NC(=O)[C@H](CCC(=O)O)NC(=O)[C@H](CCC(=O)O)NC(=O)[C@H](CC(C)C)NC(=O)[C@H](Cc1ccc(O)cc1)NC(=O)[C@H](CCC(=O)O)NC(=O)[C@@H](NC(=O)[C@@H](NC(=O)[C@H](CC(=O)O)NC(=O)[C@H](CC(N)=O)NC(=O)[C@@H](NC(=O)[C@H](Cc1ccc(O)cc1)NC(=O)[C@@H](NC(=O)CNC(=O)[C@H](CCC(=O)O)NC(=O)C(C)(C)NC(=O)[C@@H](N)Cc1c[nH]cn1)[C@@H](C)O)[C@@H](C)O)C(C)C)[C@@H](C)O)C(=O)N[C@@H](CCC(=O)O)C(=O)N[C@@H](Cc1c[nH]c2ccccc12)C(=O)N[C@@H](CC(C)C)C(=O)N[C@@H](CS)C(=O)N[C@@H](CCCCN)C(=O)NCC(=O)N[C@@H](CCCCN)C(=O)N1CCC[C@H]1C(=O)N[C@@H](CO)C(=O)N[C@@H](CO)C(=O)NCC(=O)N[C@@H](C)C(=O)N1CCC[C@H]1C(=O)N1CCC[C@H]1C(=O)N1CCC[C@H]1C(=O)N[C@@H](CO)C(N)=O` (HELM PEPTIDE1{H.[Aib].E.G.T.Y.T.N.D.V.T.E.Y.L.E.E.E.A.A.C.E.F.I.E.W.L.C.K.G.K.P.S.S.G.A.P.P.P.S.[am]}$$$$V2.0) and `CC[C@H](C)[C@H](NC(=O)[C@H](CC(C)C)NC(=O)[C@H](Cc1c[nH]c2ccccc12)NC(=O)[C@H](CCC(=O)O)NC(=O)[C@H](CS)NC(=O)[C@H](Cc1ccccc1)NC(=O)[C@H](CCC(=O)O)NC(=O)[C@H](CCCCN)NC(=O)[C@H](C)NC(=O)[C@H](C)NC(=O)[C@H](CCC(=O)O)NC(=O)[C@H](CCC(=O)O)NC(=O)[C@H](CCC(=O)O)NC(=O)[C@H](CC(C)C)NC(=O)[C@H](Cc1ccc(O)cc1)NC(=O)[C@H](CCC(=O)O)NC(=O)[C@@H](NC(=O)[C@@H](NC(=O)[C@H](CC(=O)O)NC(=O)[C@H](CC(N)=O)NC(=O)[C@@H](NC(=O)[C@H](Cc1ccc(O)cc1)NC(=O)[C@@H](NC(=O)CNC(=O)[C@H](CCC(=O)O)NC(=O)C(C)(C)NC(=O)[C@@H](N)Cc1c[nH]cn1)[C@@H](C)O)[C@@H](C)O)C(C)C)[C@@H](C)O)C(=O)N[C@@H](CCCCN)C(=O)NCC(=O)N[C@@H](CS)C(=O)N1CCC[C@H]1C(=O)N[C@@H](CO)C(=O)N[C@@H](CO)C(=O)NCC(=O)N[C@@H](C)C(=O)N1CCC[C@H]1C(=O)N1CCC[C@H]1C(=O)N1CCC[C@H]1C(=O)N[C@@H](CO)C(N)=O` (HELM PEPTIDE1{H.[Aib].E.G.T.Y.T.N.D.V.T.E.Y.L.E.E.E.A.A.K.E.F.C.E.W.L.I.K.G.C.P.S.S.G.A.P.P.P.S.[am]}$$$$V2.0) are within 1.5-fold of each other in EC50: 0.26 nM for the first, 0.21 nM for the second.

Compared with `CC[C@H](C)[C@H](NC(=O)[C@H](CS)NC(=O)[C@H](CCC(=O)O)NC(=O)[C@H](CCCCN)NC(=O)[C@H](C)NC(=O)[C@H](C)NC(=O)[C@H](CCC(=O)O)NC(=O)[C@H](CCC(=O)O)NC(=O)[C@H](CCC(=O)O)NC(=O)[C@H](CC(C)C)NC(=O)[C@H](Cc1ccc(O)cc1)NC(=O)[C@H](CCC(=O)O)NC(=O)[C@@H](NC(=O)[C@@H](NC(=O)[C@H](CC(=O)O)NC(=O)[C@H](CC(N)=O)NC(=O)[C@@H](NC(=O)[C@H](Cc1ccc(O)cc1)NC(=O)[C@@H](NC(=O)CNC(=O)[C@H](CCC(=O)O)NC(=O)C(C)(C)NC(=O)[C@@H](N)Cc1c[nH]cn1)[C@@H](C)O)[C@@H](C)O)C(C)C)[C@@H](C)O)C(=O)N[C@@H](CCC(=O)O)C(=O)N[C@@H](Cc1c[nH]c2ccccc12)C(=O)N[C@@H](CC(C)C)C(=O)N[C@H](C(=O)N[C@@H](CCCCN)C(=O)N[C@@H](CS)C(=O)N[C@@H](CCCCN)C(=O)N1CCC[C@H]1C(=O)N[C@@H](CO)C(=O)N[C@@H](CO)C(=O)NCC(=O)N[C@@H](C)C(=O)N1CCC[C@H]1C(=O)N1CCC[C@H]1C(=O)N1CCC[C@H]1C(=O)N[C@@H](CO)C(N)=O)[C@@H](C)CC` (HELM PEPTIDE1{H.[Aib].E.G.T.Y.T.N.D.V.T.E.Y.L.E.E.E.A.A.K.E.C.I.E.W.L.I.K.C.K.P.S.S.G.A.P.P.P.S.[am]}$$$$V2.0), `CC[C@H](C)[C@H](NC(=O)[C@H](CS)NC(=O)[C@H](Cc1c[nH]c2ccccc12)NC(=O)[C@H](CCC(=O)O)NC(=O)[C@@H](NC(=O)[C@H](Cc1ccccc1)NC(=O)[C@H](CCC(=O)O)NC(=O)[C@H](CCCCN)NC(=O)[C@H](CS)NC(=O)[C@H](C)NC(=O)[C@H](CCC(=O)O)NC(=O)[C@H](CCC(=O)O)NC(=O)[C@H](CCC(=O)O)NC(=O)[C@H](CC(C)C)NC(=O)[C@H](Cc1ccc(O)cc1)NC(=O)[C@H](CCC(=O)O)NC(=O)[C@@H](NC(=O)[C@@H](NC(=O)[C@H](CC(=O)O)NC(=O)[C@H](CC(N)=O)NC(=O)[C@@H](NC(=O)[C@H](Cc1ccc(O)cc1)NC(=O)[C@@H](NC(=O)CNC(=O)[C@H](CCC(=O)O)NC(=O)C(C)(C)NC(=O)[C@@H](N)Cc1c[nH]cn1)[C@@H](C)O)[C@@H](C)O)C(C)C)[C@@H](C)O)[C@@H](C)CC)C(=O)N[C@@H](CCCCN)C(=O)NCC(=O)N[C@@H](CCCCN)C(=O)N1CCC[C@H]1C(=O)N[C@@H](CO)C(=O)N[C@@H](CO)C(=O)NCC(=O)N[C@@H](C)C(=O)N1CCC[C@H]1C(=O)N1CCC[C@H]1C(=O)N1CCC[C@H]1C(=O)N[C@@H](CO)C(N)=O` (HELM PEPTIDE1{H.[Aib].E.G.T.Y.T.N.D.V.T.E.Y.L.E.E.E.A.C.K.E.F.I.E.W.C.I.K.G.K.P.S.S.G.A.P.P.P.S.[am]}$$$$V2.0) is 1.5-fold higher in EC50: 0.16 nM for the first, 0.24 nM for the second.

`CC[C@H](C)[C@H](NC(=O)[C@H](CC(C)C)NC(=O)[C@H](Cc1c[nH]c2ccccc12)NC(=O)[C@H](CCC(=O)O)NC(=O)[C@@H](NC(=O)[C@H](CS)NC(=O)[C@H](CCC(=O)O)NC(=O)[C@H](CCCCN)NC(=O)[C@H](C)NC(=O)[C@H](C)NC(=O)[C@H](CCC(=O)O)NC(=O)[C@H](CCC(=O)O)NC(=O)[C@H](CCC(=O)O)NC(=O)[C@H](CC(C)C)NC(=O)[C@H](Cc1ccc(O)cc1)NC(=O)[C@H](CCC(=O)O)NC(=O)[C@@H](NC(=O)[C@@H](NC(=O)[C@H](CC(=O)O)NC(=O)[C@H](CC(N)=O)NC(=O)[C@@H](NC(=O)[C@H](Cc1ccc(O)cc1)NC(=O)[C@@H](NC(=O)CNC(=O)[C@H](CCC(=O)O)NC(=O)C(C)(C)NC(=O)[C@@H](N)Cc1c[nH]cn1)[C@@H](C)O)[C@@H](C)O)C(C)C)[C@@H](C)O)[C@@H](C)CC)C(=O)N[C@@H](CCCCN)C(=O)N[C@@H](CS)C(=O)N[C@@H](CCCCN)C(N)=O` (HELM PEPTIDE1{H.[Aib].E.G.T.Y.T.N.D.V.T.E.Y.L.E.E.E.A.A.K.E.C.I.E.W.L.I.K.C.K.[am]}$$$$V2.0) and `CC[C@H](C)[C@H](NC(=O)[C@H](CC(C)C)NC(=O)[C@H](Cc1c[nH]c2ccccc12)NC(=O)[C@H](CCC(=O)O)NC(=O)[C@H](CS)NC(=O)[C@H](Cc1ccccc1)NC(=O)[C@H](CCC(=O)O)NC(=O)[C@H](CCCCN)NC(=O)[C@H](C)NC(=O)[C@H](C)NC(=O)[C@H](CCC(=O)O)NC(=O)[C@H](CCC(=O)O)NC(=O)[C@H](CCC(=O)O)NC(=O)[C@H](CC(C)C)NC(=O)[C@H](Cc1ccc(O)cc1)NC(=O)[C@H](CCC(=O)O)NC(=O)[C@@H](NC(=O)[C@@H](NC(=O)[C@H](CC(=O)O)NC(=O)[C@H](CC(N)=O)NC(=O)[C@@H](NC(=O)[C@H](Cc1ccc(O)cc1)NC(=O)[C@@H](NC(=O)CNC(=O)[C@H](CCC(=O)O)NC(=O)C(C)(C)NC(=O)[C@@H](N)Cc1c[nH]cn1)[C@@H](C)O)[C@@H](C)O)C(C)C)[C@@H](C)O)C(=O)N[C@@H](CCCCN)C(=O)NCC(=O)N[C@@H](CS)C(N)=O` (HELM PEPTIDE1{H.[Aib].E.G.T.Y.T.N.D.V.T.E.Y.L.E.E.E.A.A.K.E.F.C.E.W.L.I.K.G.C.[am]}$$$$V2.0) are within 1.5-fold of each other in EC50: 0.45 nM for the first, 0.62 nM for the second.
